In US11021521B2, “Pore-modified gram-negative bacteria and uses thereof” (priority 2015, dated 2021):
Values after ≈ are worked out from the molar mass of the structure shown. Like-named read-outs stand apart in the source and are kept apart here. Bridge positions count the residues as written; N and C are the ends. Square brackets hold non-standard residues; d marks the D form. Peptide text beside a SMILES is read from it. * marks the point of attachment. Ileψ(thiazoline)Cys = CC[C@H](C)[C@H](N)C1=N[C@H](C(=O)*)CS1; dOrn = NCCC[C@@H](N)C(=O)O

Legend:
Test in all cases: microbe, parasite or virus in culture
Format in all cases: cell-based
[1] = test system: B. thailandensis BtΔ2-RHA-BtPore (efflux-deficient, hyperporinated); conditions: Burkholderia thailandensis
[2] = test system: A. baumannii Ab-ARA-EcPore (hyperporinated); conditions: Acinetobacter baumannii; Ab-ARA-EcPore; at least three independent measurements; read-out: MIC
[3] = test system: B. thailandensis Bt-RHA-BtPore (hyperporinated)
[4] = test system: B. cepacia Bc-RHA (wild type, empty cassette); conditions: Burkholderia cepacia, read-out: MIC
[5] = test system: A. baumannii AbΔ3-ARA-EcPore (efflux-deficient, hyperporinated); conditions: Acinetobacter baumannii; AbΔ3-ARA-EcPore; at least three independent measurements; read-out: MIC
[6] = test system: B. cepacia Bc-RHA-BtPore (hyperporinated); conditions: Burkholderia cepacia; Bc-RHA-BtPore; read-out: MIC
[7] = test system: P. aeruginosa PAO1-LAC-EcPore (hyperporinated); conditions: Pseudomonas aeruginosa; PAO1-LAC-EcPore; at least three independent measurements; read-out: MIC
[8] = test system: P. aeruginosa PAO1-LAC (wild type, empty cassette); conditions: Pseudomonas aeruginosa, at least three independent measurements, read-out: MIC
[9] = test system: A. baumannii Ab-ARA (wild type, empty cassette); conditions: Acinetobacter baumannii, at least three independent measurements, read-out: MIC
[10] = test system: B. thailandensis Bt-RHA (wild type, empty cassette)
[11] = test system: B. thailandensis BtΔ2-RHA (efflux-deficient); conditions: Burkholderia thailandensis
[12] = test system: A. baumannii AbΔ3-ARA (efflux-deficient); conditions: Acinetobacter baumannii; AbΔ3-ARA; at least three independent measurements; read-out: MIC
[13] = test system: P. aeruginosa PaΔ3-LAC (efflux-deficient); conditions: Pseudomonas aeruginosa, at least three independent measurements, read-out: MIC
[14] = test system: P. aeruginosa PaΔ3-LAC-EcPore (efflux-deficient, hyperporinated); conditions: Pseudomonas aeruginosa; PaΔ3-LAC-EcPore; at least three independent measurements; read-out: MIC

Row | SMILES | MIC [1] | MIC [2] | MIC ([3]; Burkholderia thailandensis) | MIC [4] | MIC [5] | MIC [6] | MIC [7] | MIC [8] | MIC [9] | MIC ([10]; Burkholderia thailandensis) | MIC [11] | MIC [12] | MIC [13] | MIC [14] | MIC [10] | MIC [3]
1 | NCC[C@H](O)C(=O)N[C@@H]1C[C@H](N)[C@@H](O[C@H]2O[C@H](CN)[C@@H](O)[C@H](O)[C@H]2O)[C@H](O)[C@H]1O[C@H]1O[C@H](CO)[C@@H](O)[C@H](N)[C@H]1O [Amikacin] | 2 µg/mL (≈ 3.42 µM) | 4 µg/mL (≈ 6.83 µM) | 256 µg/mL (≈ 437 µM) | 128 µg/mL (≈ 219 µM) | 4 µg/mL (≈ 6.83 µM) | 8 µg/mL (≈ 13.7 µM) | 2 µg/mL (≈ 3.42 µM) | 2 µg/mL (≈ 3.42 µM) | 8 µg/mL (≈ 13.7 µM) | 256 µg/mL (≈ 437 µM) | 4 µg/mL (≈ 6.83 µM) | 4 µg/mL (≈ 6.83 µM) | – | – | – | –
2 | CC1(C)S[C@@H]2[C@H](NC(=O)[C@H](N)c3ccccc3)C(=O)N2[C@H]1C(=O)O [Ampicillin] | – | – | – | – | – | 512 µg/mL (≈ 1470 µM) | 16 µg/mL (≈ 45.8 µM) | – | 2050 µg/mL (≈ 5860 µM) | – | – | – | – | – | – | –
3 | CC[C@H]1OC(=O)[C@H](C)[C@@H](O[C@H]2C[C@@](C)(OC)[C@@H](O)[C@H](C)O2)[C@H](C)[C@@H](O[C@@H]2O[C@H](C)C[C@H](N(C)C)[C@H]2O)[C@](C)(O)C[C@@H](C)CN(C)[C@H](C)[C@@H](O)[C@]1(C)O [Azithromycin] | 0.032 µg/mL (≈ 0.0427 µM) | 0.04 µg/mL (≈ 0.0534 µM) | 64 µg/mL (≈ 85.4 µM) | 64 µg/mL (≈ 85.4 µM) | 0.08 µg/mL (≈ 0.107 µM) | 1 to 2 µg/mL (≈ 1.34 to 2.67 µM) | 4 µg/mL (≈ 5.34 µM) | – | 0.31 µg/mL (≈ 0.414 µM) | 128 µg/mL (≈ 171 µM) | 1 µg/mL (≈ 1.34 µM) | 0.31 µg/mL (≈ 0.414 µM) | 4 µg/mL (≈ 5.34 µM) | 0.063 µg/mL (≈ 0.0841 µM) | – | –
4 | CC[C@H](C)[C@H](N)C1=N[C@H](C(=O)N[C@@H](CC(C)C)C(=O)N[C@H](CCC(=O)O)C(=O)N[C@H](C(=O)N[C@H]2CCCCNC(=O)[C@H](CC(N)=O)NC(=O)[C@@H](CC(=O)O)NC(=O)[C@H](Cc3cnc[nH]3)NC(=O)[C@@H](Cc3ccccc3)NC(=O)[C@H]([C@@H](C)CC)NC(=O)[C@@H](CCCN)NC2=O)[C@@H](C)CC)CS1 [Bacitracin] ({Ileψ(thiazoline)Cys}-L[dE]IK[dOrn]I[dF]H[dD]N; lactam 4-C) | 8 µg/mL (≈ 5.62 µM) | 32 µg/mL (≈ 22.5 µM) | 1020 µg/mL (≈ 720 µM) | > 1020 µg/mL | 64 µg/mL (≈ 45 µM) | 16 µg/mL (≈ 11.2 µM) | 64 µg/mL (≈ 45 µM) | > 1020 µg/mL | 256 µg/mL (≈ 180 µM) | > 1020 µg/mL | 1020 µg/mL (≈ 720 µM) | 512 µg/mL (≈ 360 µM) | > 1020 µg/mL | 64 µg/mL (≈ 45 µM) | – | –
5 | CC1(C)S[C@@H]2[C@H](NC(=O)C(C(=O)O)c3ccccc3)C(=O)N2[C@H]1C(=O)O (some centres unmarked) [Carbenicillin] | 8 µg/mL (≈ 21.1 µM) | 32 µg/mL (≈ 84.6 µM) | 256 µg/mL (≈ 677 µM) | > 1020 µg/mL | 64 µg/mL (≈ 169 µM) | 128 µg/mL (≈ 338 µM) | 2 µg/mL (≈ 5.29 µM) | – | 2050 µg/mL (≈ 5410 µM) | – | 256 µg/mL (≈ 677 µM) | 2050 µg/mL (≈ 5410 µM) | 1 µg/mL (≈ 2.64 µM) | 0.125 µg/mL (≈ 0.33 µM) | 256 to 512 µg/mL | –
6 | O=C(N[C@H](CO)[C@H](O)c1ccc([N+](=O)[O-])cc1)C(Cl)Cl [Chloramphenicol] | 1 µg/mL (≈ 3.09 µM) | 8 µg/mL (≈ 24.8 µM) | 8 µg/mL (≈ 24.8 µM) | 16 µg/mL (≈ 49.5 µM) | 4 µg/mL (≈ 12.4 µM) | 4 µg/mL (≈ 12.4 µM) | 2 µg/mL (≈ 6.19 µM) | – | 32 µg/mL (≈ 99 µM) | 8 µg/mL (≈ 24.8 µM) | 4 µg/mL (≈ 12.4 µM) | 8 µg/mL (≈ 24.8 µM) | 1 µg/mL (≈ 3.09 µM) | 0.125 µg/mL (≈ 0.387 µM) | – | –
7 | O=C(O)c1cn(C2CC2)c2cc(N3CCNCC3)c(F)cc2c1=O [Ciprofloxacin] | – | – | – | 1 µg/mL (≈ 3.02 µM) | – | – | – | – | – | – | – | – | – | – | – | –
8 | Cc1onc(-c2ccccc2Cl)c1C(=O)N[C@@H]1C(=O)N2[C@@H]1SC(C)(C)[C@@H]2C(=O)O [Cloxacillin] | 0.5 µg/mL (≈ 1.15 µM) | 128 µg/mL (≈ 294 µM) | – | 256 µg/mL (≈ 587 µM) | 16 µg/mL (≈ 36.7 µM) | 4 µg/mL (≈ 9.18 µM) | 512 µg/mL (≈ 1170 µM) | – | 1020 µg/mL (≈ 2350 µM) | 256 µg/mL (≈ 587 µM) | 32 µg/mL (≈ 73.4 µM) | 128 µg/mL (≈ 294 µM) | 128 µg/mL (≈ 294 µM) | 8 µg/mL (≈ 18.4 µM) | – | 128 to 256 µg/mL
9 | C[C@H]1c2cccc(O)c2C(=O)C2=C(O)[C@]3(O)C(=O)C(C(N)=O)=C(O)[C@@H](N(C)C)[C@@H]3[C@@H](O)[C@@H]21 [Doxycycline] | 0.01 µg/mL (≈ 0.0225 µM) | 0.02 µg/mL (≈ 0.045 µM) | 1.5 µg/mL (≈ 3.38 µM) | 6 µg/mL (≈ 13.5 µM) | 0.0016 µg/mL (≈ 0.0036 µM) | 3 µg/mL (≈ 6.75 µM) | – | – | 0.04 µg/mL (≈ 0.09 µM) | 3 µg/mL (≈ 6.75 µM) | 0.02 µg/mL (≈ 0.045 µM) | 0.0016 µg/mL (≈ 0.0036 µM) | – | – | – | –
